The source of these data is ChEMBL document CHEMBL1201862, “PubChem BioAssay data set” (2004).

Molecules are shown by their SMILES.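 Exposure lasted 48 hours, with cells grown in 96-well plates and compounds tested at five concentrations. GI50 = concentration required for 50% inhibition of growth.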 Activity calls are given as the source filed them. Cut-off read from the data, not from the text of the source: active = GI50 up to about 1.1 µM and inactive = higher.

Among the test systems are OVCAR-5; HCT-116; SK-MEL-5; HT-29; SK-MEL-28; OVCAR-8; SW-620; NCI-H460; NCI-H522; HL-60; PC-3; NCI-H226; IGROV-1; HCC 2998; NCI-H23; DU-145; CCRF-CEM; TK-10; M14.
Experiment in all cases: NCI tumour cell line growth inhibition, 48 h

Take `Cc1ccc2nc(C(C)C)c(=O)[nH]c2c1`: the GI50 in the experiment on OVCAR-5 is > 100 µM (inactive); with HCT-116 it was > 100 µM (inactive); in the experiment on SK-MEL-5, > 100 µM (inactive); with HT-29 it was > 100 µM (inactive); in the experiment on SK-MEL-28 it was > 100 µM (inactive); with OVCAR-8, 26.1 µM (inactive). Moreover, the GI50 in the experiment with SW-620 was > 100 µM (inactive); in the experiment on NCI-H460 it was > 100 µM (inactive); in the experiment with NCI-H522, 82.8 µM (inactive); in the experiment with HL-60 it was > 100 µM (inactive); in the experiment with PC-3, 19.9 µM (inactive); in the experiment with NCI-H226, > 100 µM (inactive). The GI50 with IGROV-1, in the experiment on HCC 2998, with NCI-H23, in the experiment on DU-145, with CCRF-CEM and in the experiment with TK-10 was > 100 µM (inactive) throughout. Moreover, in the experiment on M14, the GI50 was > 100 µM (inactive).
As to `CCOC(=O)NN(C(=O)OCC)C(=C(c1ccccc1)N1CCOCC1)N(NC(=O)OCC)C(=O)OCC`, the GI50 in the experiment with OVCAR-5, in the experiment on HCT-116, in the experiment with SK-MEL-5, in the experiment on HT-29, in the experiment on SK-MEL-28 and in the experiment with OVCAR-8 was > 100 µM (inactive) throughout. Besides, the GI50 in the experiment with SW-620, with NCI-H460, with NCI-H522, in the experiment with HL-60, in the experiment with PC-3 and in the experiment with NCI-H226 was > 100 µM (inactive) each time. Also, the GI50 in the experiment with IGROV-1, with HCC 2998, with NCI-H23, in the experiment with DU-145, with CCRF-CEM and in the experiment with TK-10 was > 100 µM (inactive) in each case. The GI50 in the experiment with M14 is > 100 µM (inactive).
Regarding `CCCCCCCCCCCCCCC(C(=O)[O-])[n+]1ccccc1` (stereo not given), the GI50 in the experiment with OVCAR-5 was 84.1 µM (inactive); in the experiment on HCT-116 it was > 100 µM (inactive); with SK-MEL-5, > 100 µM (inactive); in the experiment with HT-29, > 100 µM (inactive); with SK-MEL-28, > 100 µM (inactive); in the experiment on OVCAR-8, 98.6 µM (inactive). Also, the GI50 with SW-620 is > 100 µM (inactive); with NCI-H460, > 100 µM (inactive); with NCI-H522, > 100 µM (inactive); with HL-60, 98.4 µM (inactive); in the experiment on PC-3, 18.8 µM (inactive); in the experiment on NCI-H226 it was > 100 µM (inactive). Also, the GI50 was > 100 µM (inactive) in the experiment on IGROV-1; 97.3 µM (inactive) in the experiment with HCC 2998; > 100 µM (inactive) in the experiment on NCI-H23; > 100 µM (inactive) in the experiment with DU-145; > 100 µM (inactive) in the experiment with CCRF-CEM; 15.1 µM (inactive) in the experiment with TK-10. For the same molecule, the GI50 in the experiment with M14 was > 100 µM (inactive).
`CC(C)CCCC(C)[C@H]1CCC2[C@@H]3CCC4Cc5nc6c(nc5C[C@]4(C)C3CC[C@@]21C)CC1CC[C@@H]2C(C[C@@H](O)[C@@]3(C)C2C[C@@H]2OC4(CCC(C)CO4)C(C)[C@@H]23)[C@@]1(C)C6` (stereo not given in full): the GI50 with OVCAR-5, with HCT-116, in the experiment on SK-MEL-5, in the experiment with HT-29, in the experiment with SK-MEL-28 and with OVCAR-8 was > 100 µM (inactive) each time. The GI50 in the experiment on SW-620, with NCI-H460, in the experiment on NCI-H522, in the experiment with HL-60, with PC-3 and with NCI-H226 was > 100 µM (inactive) throughout. In addition, the GI50 with IGROV-1, with HCC 2998, in the experiment on NCI-H23, in the experiment on DU-145, in the experiment on CCRF-CEM and in the experiment with TK-10 was > 100 µM (inactive) in each case. Further, the GI50 in the experiment on M14 is > 100 µM (inactive).
`Nc1ncnc2oc(-c3cccs3)nc12`: the GI50 in the experiment with OVCAR-5 was > 100 µM (inactive); in the experiment with HCT-116, > 100 µM (inactive); in the experiment with SK-MEL-5, > 100 µM (inactive); in the experiment with HT-29, 83.4 µM (inactive); in the experiment on SK-MEL-28, > 100 µM (inactive); with OVCAR-8, > 100 µM (inactive). Besides, the GI50 in the experiment with SW-620, in the experiment on NCI-H460, in the experiment with NCI-H522, in the experiment on HL-60, with PC-3 and with NCI-H226 was > 100 µM (inactive) each time. Further, the GI50 with IGROV-1, in the experiment on HCC 2998, in the experiment with NCI-H23, in the experiment on DU-145, in the experiment on CCRF-CEM and with TK-10 was > 100 µM (inactive) throughout. Moreover, the GI50 with M14 was > 100 µM (inactive).
Regarding `O=C(O)c1ccc2c(c1)CC1(C2)Cc2ccccc2C1=O` (stereo not given), the GI50 in the experiment with OVCAR-5, with HCT-116, with SK-MEL-5, in the experiment with HT-29, with SK-MEL-28 and in the experiment with OVCAR-8 was > 100 µM (inactive) each time. For the same molecule, the GI50 in the experiment with SW-620, with NCI-H460, in the experiment with NCI-H522, with HL-60, in the experiment with PC-3 and with NCI-H226 was > 100 µM (inactive) throughout. For the same molecule, the GI50 in the experiment with IGROV-1, in the experiment with HCC 2998, in the experiment on NCI-H23, in the experiment with DU-145, with CCRF-CEM and with TK-10 was > 100 µM (inactive) in each case. In the experiment with M14, the GI50 was 51.8 µM (inactive).
On to `COC(=O)C(CCC1C=CCC1)/N=C\c1ccccc1` (stereo not given), for which the GI50 is > 100 µM (inactive) in the experiment with OVCAR-5; 31.3 µM (inactive) with HCT-116; 32.1 µM (inactive) with SK-MEL-5; 50 µM (inactive) in the experiment on HT-29; > 100 µM (inactive) in the experiment on SK-MEL-28; 68.2 µM (inactive) in the experiment on OVCAR-8. For the same molecule, the GI50 in the experiment with SW-620 was > 100 µM (inactive); with NCI-H460 it was 44 µM (inactive); with NCI-H522 it was 54.2 µM (inactive); in the experiment with HL-60, 36.8 µM (inactive); in the experiment with PC-3 it was 35.6 µM (inactive); in the experiment with NCI-H226, 56.8 µM (inactive). In addition, the GI50 in the experiment on IGROV-1 is > 100 µM (inactive); with HCC 2998 it was 86.3 µM (inactive); in the experiment on NCI-H23, 52.6 µM (inactive); in the experiment with DU-145, 97.9 µM (inactive); in the experiment with CCRF-CEM, 56 µM (inactive); with TK-10, 99.1 µM (inactive). In addition, in the experiment on M14, the GI50 is 46.2 µM (inactive).
For the molecule `CNc1cc2c(c3ccccc13)C(CCl)CN2C(=O)c1cc2cc(OC)c(OC)c(OC)c2[nH]1` (stereo not given), the GI50 in the experiment on OVCAR-5 is 0.0052 µM (active); with HCT-116 it was 0.00106 µM (active); in the experiment on SK-MEL-5, 0.00146 µM (active); in the experiment with HT-29 it was 0.0013 µM (active); with SK-MEL-28, 0.0122 µM (active); in the experiment with OVCAR-8, 0.00123 µM (active). Further, the GI50 was 0.00144 µM (active) with SW-620; 0.000212 µM (active) in the experiment on NCI-H460; < 0.01 µM (active) in the experiment with NCI-H522; 0.000123 µM (active) in the experiment on HL-60; 0.00214 µM (active) with PC-3; 0.0138 µM (active) in the experiment on NCI-H226. Besides, the GI50 in the experiment with IGROV-1 was 0.00243 µM (active); in the experiment on HCC 2998, < 0.01 µM (active); in the experiment on NCI-H23, 0.000465 µM (active); with DU-145 it was 0.000442 µM (active); in the experiment on CCRF-CEM it was 0.00053 µM (active); with TK-10 it was 0.00218 µM (active). Also, the GI50 in the experiment with M14 is 0.00235 µM (active).
For the molecule `O=c1c2ccccc2sc2ccccc12`, the GI50 with OVCAR-5, with HCT-116, in the experiment on SK-MEL-5, in the experiment with HT-29, in the experiment with SK-MEL-28 and with OVCAR-8 was > 100 µM (inactive) each time. In addition, the GI50 with SW-620, in the experiment with NCI-H460, in the experiment on NCI-H522, with HL-60, in the experiment on PC-3 and in the experiment on NCI-H226 was > 100 µM (inactive) each time. The GI50 in the experiment on IGROV-1, in the experiment on HCC 2998, in the experiment with NCI-H23, with DU-145, in the experiment with CCRF-CEM and in the experiment on TK-10 was > 100 µM (inactive) throughout. Also, the GI50 in the experiment on M14 is > 100 µM (inactive).
`COc1cc(C2c3[nH]c4ccccc4c3[C@@H](Nc3ccc(C#N)cc3)[C@H]3COC(=O)N23)cc(OC)c1O` (stereo not given in full): the GI50 is 0.316 µM (active) with OVCAR-5; 0.233 µM (active) in the experiment on HCT-116; 0.132 µM (active) with SK-MEL-5; 0.3 µM (active) in the experiment with HT-29; 0.395 µM (active) in the experiment on SK-MEL-28; 0.227 µM (active) with OVCAR-8. The GI50 with SW-620 is 0.122 µM (active); in the experiment with NCI-H460, 0.0288 µM (active); in the experiment on NCI-H522, 0.175 µM (active); with HL-60 it was 0.0399 µM (active); in the experiment on PC-3 it was 0.462 µM (active); in the experiment with NCI-H226 it was 0.19 µM (active). Also, the GI50 in the experiment on IGROV-1 is 0.501 µM (active); in the experiment on HCC 2998 it was 0.239 µM (active); in the experiment on NCI-H23, 0.238 µM (active); in the experiment with DU-145, 0.252 µM (active); in the experiment on CCRF-CEM it was 0.054 µM (active); with TK-10 it was 0.335 µM (active). In addition, in the experiment on M14, the GI50 was 0.344 µM (active).
